Source: patent US20240228499A1, “MASP-2 INHIBITORS AND METHODS OF USE” (Omeros Corporation, priority 2022, published 2024)
Where a name gives a salt, the structure may show the parent alone.

Tests used:
MASP-2 (CCP1-CCP2-SP) = target: T1, MASP-2 (CCP1-CCP2-SP) (Homo sapiens, UniProt O00187); assay: Enzymatic assay for MASP-2 inhibitory activity (fluorogenic substrate); format: biochemical; settings: room temperature, 20 mM Hepes pH 7.4, 20 min
T1 construct: 15 μL of Enzyme MASP-2 (CCP1-CCP2-SP) in Assay Buffer
Experimental: The MASP-2 assay utilizes a fluorogenic substrate, based on the cleavage site for its natural substrate C2. The assay was run at room temperature in an assay buffer containing 20 mM HEPES, pH 7.4, 140 mM NaCl and 0.1% Tween 20. Assay parameters were adjusted such that the assay was linear with respect to time, enzyme, and substrate concentrations. Under the optimized assays conditions, IC50 values were equivalent to Ki values, except in the few cases of “tight binding” inhibitors. Cases of “tight binding” or possible “slow binding” inhibitors were handled by the methods described in Copeland R. A. (2013) Evaluation of Enzyme Inhibitors in Drug Discovery. 2nd Ed., John Wiley and Sons, Inc., Chapters 5-7.
The MASP-2 assay protocol was carried out as follows. Test compounds were serially diluted in DMSO and then 100 nL of each dilution was transferred to the assay plate(s). 10 μL of Assay Buffer was added, followed by 15 μL of Enzyme MASP-2 (CCP1-CCP2-SP) in Assay Buffer. 15 μL of Substrate in Assay Buffer was then added and the mixture was mixed to start the reaction. After 20 min at room temperature, 15 μL of a stop solution (0.1 M acetic acid) was added, the sample was mixed, and the plates were read on a SpectraMax i3× Microplate Reader with the data exported as an Excel file. Each assay plate included a “no inhibitor” (DMSO only) control, a “no enzyme” control, and a reference inhibitor control. % Activity values=100*(average test comp. fluorescence−average “no enzyme” fluorescence)/(average “DMSO only” fluorescence−average “no enzyme” fluorescence). IC50 and Ki replicate values were very reproducible, with values well within +2-fold.

human a-thrombin = target: T2, human a-thrombin (Homo sapiens, UniProt P00734); assay: Enzymatic assay for thrombin (fluorogenic peptide substrate Boc-VPR-AMC); format: biochemical; settings: room temperature, 20 mM Hepes pH 7.4, 20 min
T2 construct: enzyme (human a-thrombin (BioPharm® Lab.)); purchased BioPharm Lab
Experimental: The thrombin assay utilizes a fluorogenic peptide substrate (Boc-VPR-AMC (R&D Systems) and was run at room temperature in an assay buffer containing 20 mM Hepes, pH 7.4, 140 mM NaCl and 0.1% Tween 20. Assay parameters were adjusted such that the assay was linear with respect to time, enzyme, and substrate concentrations. Under these optimized assays conditions, IC50 values were equivalent to Ki values, except in a few cases of “tight binding” inhibitors. Cases of “tight binding” or possible “slow binding” inhibitors were handled by the methods described in Copeland R.A. (2013) Evaluation of Enzyme Inhibitors in Drug Discovery. 2nd Ed. John Wiley and Sons, Inc., Chapters 5-7.
The thrombin assay protocol was carried out as follows. Test compounds were serially diluted in DMSO and then 100 nL of each dilution was transferred to the assay plate(s). 10 μL of Assay Buffer was added, followed by 15 μL of enzyme (human a-thrombin (BioPharm® Lab.)) in assay buffer. 15 μL of substrate in assay buffer was then added and the sample mixed to start the reaction. After 20 min at room temperature, 15 μL of a stop solution (0.1 M acetic acid) was added, the sample was mixed, and the plates were read on a SpectraMax® i3× Microplate Reader with the data exported as Excel files. Each assay plate included a “no inhibitor” (DMSO only) control, a “no enzyme” control, and a reference inhibitor control. % Activity values=100*(ave. test comp. fluorescence−ave. “no enz” fluorescence)/(ave. “DMSO only” fluorescence−ave. “no enz” fluorescence). IC50 and Ki values were very reproducible, with values falling well within +2-fold.

T1 sequence (O00187 287-686 limits assumed): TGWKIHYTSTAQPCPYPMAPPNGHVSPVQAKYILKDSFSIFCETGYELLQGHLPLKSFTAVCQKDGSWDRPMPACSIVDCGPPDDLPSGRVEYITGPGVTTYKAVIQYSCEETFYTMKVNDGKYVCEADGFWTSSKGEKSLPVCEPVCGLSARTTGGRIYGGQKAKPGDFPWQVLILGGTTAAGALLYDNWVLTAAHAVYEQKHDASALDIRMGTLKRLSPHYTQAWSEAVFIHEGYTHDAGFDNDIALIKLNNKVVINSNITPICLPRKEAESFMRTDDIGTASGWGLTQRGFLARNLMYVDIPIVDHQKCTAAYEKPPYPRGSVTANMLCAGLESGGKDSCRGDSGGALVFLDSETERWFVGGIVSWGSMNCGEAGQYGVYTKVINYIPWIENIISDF

Row | Ki (MASP-2 (CCP1-CCP2-SP)) [nM] | Ki (human a-thrombin) [nM] | Compound
1 | < 500 | 500 to 2500 | Cc1cccc(C(C)Nc2cnc3n(c2=O)[C@H](C(=O)NCc2cc4c(s2)CNC4)CC3)c1 (single isomer, unassigned) [Compound 69, di-trifluoroacetate]
2 | < 500 | 10000 to 25000 | Cc1cccc(C(C)Nc2cnc3n(c2=O)[C@H](C(=O)NCc2cc4c(s2)CNC4)CC3)c1 (single isomer, unassigned) [Compound 70, di-trifluoroacetate]
3 | < 500 | 500 to 2500 | Cc1cc(C)cc(CNc2cnc3n(c2=O)[C@H](C(=O)NCc2ccc(N)nc2C)CC3)c1 [Compound 1, (S)—N-((6-amino-2-methylpyridin-3-yl)methyl)-3-((3,5-dimethylbenzyl)amino)-4-oxo-4,6,7,8-tetrahydropyrrolo[1,2-a]pyrimidine-6-carboxamide]
4 | < 500 | < 500 | COc1cc(C)cc(CNc2cnc3n(c2=O)[C@H](C(=O)NCc2ccc(N)nc2C)CC3)c1 [Compound 2, (S)—N-((6-amino-2-methylpyridin-3-yl)methyl)-3-((3-methoxy-5-methylbenzyl)amino)-4-oxo-4,6,7,8-tetrahydropyrrolo[1,2-a]pyrimidine-6-carboxamide]
5 | < 500 | 500 to 2500 | Cc1ccc(F)c(CNc2cnc3n(c2=O)[C@H](C(=O)NCc2ccc(N)nc2C)CC3)c1 [Compound 3, (S)—N-((6-amino-2-methylpyridin-3-yl)methyl)-3-((2-fluoro-5-methylbenzyl)amino)-4-oxo-4,6,7,8-tetrahydropyrrolo[1,2-a]pyrimidine-6-carboxamide]
6 | < 500 | 500 to 2500 | Cc1cc(C)cc(CNc2cnc3n(c2=O)[C@H](C(=O)NCc2ccc(N)nc2)CC3)c1 [Compound 4, (S)—N-((6-aminopyridin-3-yl)methyl)-3-((3,5-dimethylbenzyl)amino)-4-oxo-4,6,7,8-tetrahydropyrrolo[1,2-a]pyrimidine-6-carboxamide]
7 | < 500 | < 500 | Cc1cc(C)cc(CNc2cnc3n(c2=O)[C@H](C(=O)NCc2cc(Cl)ccc2-n2cnnn2)CC3)c1 [Compound 5, (S)—N-(5-chloro-2-(1H-tetrazol-1-yl)benzyl)-3-((3,5-dimethylbenzyl)amino)-4-oxo-4,6,7,8-tetrahydropyrrolo[1,2-a]pyrimidine-6-carboxamide trifluoroacetic acid]
8 | < 500 | 2500 to 10000 | Cc1cc(C)cc(CNc2cnc3n(c2=O)[C@H](C(=O)NCc2cc4cnccc4[nH]2)CC3)c1 [Compound 6, (S)—N-((1H-pyrrolo[3,2-c]pyridin-2-yl)methyl)-3-((3,5-dimethylbenzyl)amino)-4-oxo-4,6,7,8-tetrahydropyrrolo[1,2-a]pyrimidine-6-carboxamide]
9 | < 500 | > 25000 | Cc1cc(C)cc(CNc2cnc3n(c2=O)[C@H](C(=O)NCc2cc4cnc(C)cc4[nH]2)CC3)c1 [Compound 7, (S)-3-((3,5-dimethylbenzyl)amino)-N-((6-methyl-1H-pyrrolo[3,2-c]pyridin-2-yl)methyl)-4-oxo-4,6,7,8-tetrahydropyrrolo[1,2-a]pyrimidine-6-carboxamide, trifluoroacetate]
10 | < 500 | 500 to 2500 | Cc1cc(C#N)cc(CNc2cnc3n(c2=O)[C@H](C(=O)NCc2ccc(N)nc2C)CC3)c1 [Compound 8, (S)—N-((6-amino-2-methylpyridin-3-yl)methyl)-3-((3-cyano-5-methylbenzyl)amino)-4-oxo-4,6,7,8-tetrahydropyrrolo[1,2-a]pyrimidine-6-carboxamide]
11 | < 500 | 2500 to 10000 | COc1ccc(C)cc1CNc1cnc2n(c1=O)[C@H](C(=O)NCc1ccc(N)nc1C)CC2 [Compound 9, (S)-N-((6-amino-2-methylpyridin-3-yl)methyl)-3-((2-methoxy-5-methylbenzyl)amino)-4-oxo-4,6,7,8-tetrahydropyrrolo[1,2-a]pyrimidine-6-carboxamide, trifluoroacetate]
12 | < 500 | 500 to 2500 | COc1c(C)cccc1CNc1cnc2n(c1=O)[C@H](C(=O)NCc1ccc(N)nc1C)CC2 [Compound 10, (S)—N-((6-amino-2-methylpyridin-3-yl)methyl)-3-((2-methoxy-3-methylbenzyl)amino)-4-oxo-4,6,7,8-tetrahydropyrrolo[1,2-a]pyrimidine-6-carboxamide, trifluoroacetate]
13 | < 500 | 500 to 2500 | Cc1nc(N)ccc1CNC(=O)[C@@H]1CCc2ncc(NCc3cccc(N4CCOCC4)c3)c(=O)n21 [Compound 11, (S)-N-((6-amino-2-methylpyridin-3-yl)methyl)-3-((3-morpholinobenzyl)amino)-4-oxo-4,6,7,8-tetrahydropyrrolo[1,2-a]pyrimidine-6-carboxamide, hydrochloride]
14 | < 500 | 2500 to 10000 | Cc1nc(N)ccc1CNC(=O)[C@@H]1CCc2ncc(NCc3ccc4c(c3)OC(F)(F)O4)c(=O)n21 [Compound 12, (S)—N-((6-amino-2-methylpyridin-3-yl)methyl)-3-(((2,2-difluorobenzo[D][1,3]dioxol-5-yl)methyl)amino)-4-oxo-4,6,7,8-tetrahydropyrrolo[1,2-a]pyrimidine-6-carboxamide, trifluoroacetate]
15 | < 500 | 10000 to 25000 | Cc1nc(N)ccc1CNC(=O)[C@@H]1CCc2ncc(NCc3cccc(C(=O)O)c3)c(=O)n21 [Compound 13, (S)-3-(((6-(((6-amino-2-methylpyridin-3-yl)methyl)carbamoyl)-4-oxo-4,6,7,8-tetrahydropyrrolo[1,2-a]pyrimidin-3-yl)amino)methyl)benzoic acid]
16 | < 500 | 2500 to 10000 | Cc1nc(N)ccc1CNC(=O)[C@@H]1CCc2ncc(NCc3cccc4c3OCCO4)c(=O)n21 [Compound 14, (S)-N-((6-amino-2-methylpyridin-3-yl)methyl)-3-(((2,3-dihydrobenzo[b][1,4]dioxin-5-yl)methyl)amino)-4-oxo-4,6,7,8-tetrahydropyrrolo[1,2-a]pyrimidine-6-carboxamide]
17 | < 500 | > 25000 | Cc1cc(C)cc(CNc2cnc3n(c2=O)[C@H](C(=O)N[C@@H](C)c2ccc(N)nc2)CC3)c1 [Compound 15, (S)—N—((S)-1-(6-aminopyridin-3-yl)ethyl)-3-((3,5-dimethylbenzyl)amino)-4-oxo-4,6,7,8-tetrahydropyrrolo[1,2-a]pyrimidine-6-carboxamide]
18 | < 500 | > 25000 | Cc1cc(C)cc(CNc2cnc3n(c2=O)[C@H](C(=O)N[C@H](C)c2ccc(N)nc2)CC3)c1 [Compound 16]
19 | < 500 | < 500 | Cc1cc(C)cc(CNc2cnc3n(c2=O)[C@H](C(=O)NCc2cncc(Cl)c2)CC3)c1 [Compound 17, (S)—N-((5-chloropyridin-3-yl)methyl)-3-((3,5-dimethylbenzyl)amino)-4-oxo-4,6,7,8-tetrahydropyrrolo[1,2-a]pyrimidine-6-carboxamide, trifluoroacetate]
20 | 500 to 2500 | > 25000 | Cc1cc(C)cc(CNc2cnc3n(c2=O)[C@H](C(=O)NCc2ccnc(C)c2)CC3)c1 [Compound 19, (S)-3-((3,5-dimethylbenzyl)amino)-N-((2-methylpyridin-4-yl)methyl)-4-oxo-4,6,7,8-tetrahydropyrrolo[1,2-a]pyrimidine-6-carboxamide]
21 | < 500 | 2500 to 10000 | Cc1cc(C)cc(CNc2cnc3n(c2=O)[C@H](C(=O)NCc2cc4c(s2)CNC4)CC3)c1 [Compound 21, (S)—N-((5,6-dihydro-4H-thieno[2,3-c]pyrrol-2-yl)methyl)-3-((3,5-dimethylbenzyl)amino)-4-oxo-4,6,7,8-tetrahydropyrrolo[1,2-a]pyrimidine-6-carboxamide, trifluoroacetate]
